{"source": "patent US20090044291A1", "about": "“DROUGHT-RESISTANT PLANTS AND METHOD FOR PRODUCING THE PLANTS” (D-Helix, priority 2006, published 2009)", "key": {"ABAR": {"biological_target": "T1, ABAR (Arabidopsis thaliana, UniProt Q9FNB0)", "T1 construct": "6xHis; made in house; host or cells: transgenic yeast (Pichia methanolica), cell-free protein extracts", "assay": "Preliminary ABA binding experiment with transgenic yeast extracts expressing ABAR cDNA"}, "[1]": {"biological_target": "T2, natural ABAR/CHLH protein (Arabidopsis thaliana, UniProt Q9FNB0)", "T2 construct": "50 μg proteins of the crude extracts from two-week-old Arabidopsis seedlings; from tissue; host or cells: crude extracts of two-week-old Arabidopsis seedlings / leaves of gl1 (WT), RNAi line 12 and overexpressor line 1", "T2 sequence (Q9FNB0 50-1381)": "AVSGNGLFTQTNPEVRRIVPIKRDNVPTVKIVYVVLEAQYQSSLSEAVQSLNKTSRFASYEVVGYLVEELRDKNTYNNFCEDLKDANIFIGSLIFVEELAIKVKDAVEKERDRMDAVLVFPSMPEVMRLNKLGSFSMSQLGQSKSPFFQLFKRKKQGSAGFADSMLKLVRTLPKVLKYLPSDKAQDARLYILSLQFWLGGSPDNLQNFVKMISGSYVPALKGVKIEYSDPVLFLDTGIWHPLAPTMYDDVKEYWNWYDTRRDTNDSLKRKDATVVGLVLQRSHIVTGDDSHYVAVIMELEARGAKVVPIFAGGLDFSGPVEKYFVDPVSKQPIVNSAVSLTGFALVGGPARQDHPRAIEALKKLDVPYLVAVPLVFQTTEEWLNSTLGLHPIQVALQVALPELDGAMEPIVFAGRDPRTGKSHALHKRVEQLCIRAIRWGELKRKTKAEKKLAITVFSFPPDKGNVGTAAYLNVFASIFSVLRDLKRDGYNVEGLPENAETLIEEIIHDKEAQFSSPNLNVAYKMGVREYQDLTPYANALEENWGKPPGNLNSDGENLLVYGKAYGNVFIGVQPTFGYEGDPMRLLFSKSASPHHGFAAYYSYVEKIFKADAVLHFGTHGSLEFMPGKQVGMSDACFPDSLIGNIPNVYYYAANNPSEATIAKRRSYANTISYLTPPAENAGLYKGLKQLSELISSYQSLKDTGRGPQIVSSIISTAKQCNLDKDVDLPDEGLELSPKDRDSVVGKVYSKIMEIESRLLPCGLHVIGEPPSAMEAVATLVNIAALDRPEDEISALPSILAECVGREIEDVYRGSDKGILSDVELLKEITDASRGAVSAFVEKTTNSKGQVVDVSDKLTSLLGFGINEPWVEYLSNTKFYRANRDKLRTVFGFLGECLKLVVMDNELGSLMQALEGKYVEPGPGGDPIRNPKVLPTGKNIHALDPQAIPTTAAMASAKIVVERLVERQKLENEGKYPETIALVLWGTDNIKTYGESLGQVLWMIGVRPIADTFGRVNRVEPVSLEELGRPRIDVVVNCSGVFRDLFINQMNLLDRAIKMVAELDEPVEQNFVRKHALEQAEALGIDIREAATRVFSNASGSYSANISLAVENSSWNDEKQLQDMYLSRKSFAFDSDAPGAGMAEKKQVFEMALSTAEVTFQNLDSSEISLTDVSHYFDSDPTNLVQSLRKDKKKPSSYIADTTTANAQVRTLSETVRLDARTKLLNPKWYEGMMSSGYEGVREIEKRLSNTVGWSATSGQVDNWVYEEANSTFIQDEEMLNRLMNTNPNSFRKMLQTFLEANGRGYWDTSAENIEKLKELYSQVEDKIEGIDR", "assay": "ABA binding assay with crude extracts of leaves (WT, RNAi, OE lines)", "experimental": "The ABA-binding activity of ABAR was assayed according to the previously described procedures (Zhang, D. P. et al., Plant physiol. 128:714-725 (2002)) with modifications. The binding medium (medium A) contained 50 mM Tris-HCl (pH 7.0), 2 mM MgCl2, 1 mM CaCl2, and 250 mM mannitol. The medium for extracting the Arabidopsis natural ABAR/CHLH protein (medium B) was the medium A supplemented with 2 mM 1,4-dithiothreitol (DTT), 1 mM phenylmethyl sulfonyl fluoride (PMSF), […] leupeptin, and […] pepstin A but minus 250 mM mannitol. [^3H](+)ABA (American Radiolabeled Chemicals, 2.37×10^12 Bq mmol^−1, purity 98.4%) at 30 nM, or at a step gradient of concentrations from 0 to 70 nM (when analyzing ABA binding kinetics, see FIG. 1a, d1), together with 2 μg purified yeast-expressed ABAR/CHLH protein or 50 μg proteins of the crude extracts from two-week-old Arabidopsis seedlings, was added into the medium A. The total volume for the binding assays was adjusted to 200 μl. The mixtures were incubated at 25° C. for 30 min, and then quickly placed on ice. Following the addition of 100 μl 0.5% (w/v) Dextran T70-coated charcoal (DCC) to remove the free [^3H]ABA by adsorption, the mixtures were maintained on ice for 5 min, and then centrifuged to remove DCC before the radioactivity in the supernatant was counted. The specific binding was determined by the difference between the radioactivity bound to the immuno-purified ABAR protein or crude extracts of Arabidopsis seedlings incubated only with [^3H]ABA (total binding) and radioactivity bound in the presence of 1,000-fold molar excess of unlabeled (+)-ABA (Sigma; non-specific binding. Non-specific binding in all the assays was lower than 10% of the total binding, see FIG. 1a, d1). The unlabeled ABA was added into the incubation medium at the same time with [^3H]ABA. The ABA-binding activity of the crude ABA-binding protein from Arabidopsis seedling was expressed as the number of nanomoles of [^3H]ABA specifically bound per gram of protein, and that of the immuno-purified ABAR protein as the number of moles of [^3H]ABA per mole of protein. The stereo-specificity of the ABA-binding was assayed as described previously (Zhang, D. P. et al., Plant physiol. 128:714-725 (2002)). […] The conditions of incubation were the same as described above (the incubation medium containing 30 nM [^3H]ABA), and the two ABA isomers and (+)-ABA were assayed in the concentrations ranging from 1 to 1000-fold molar excess of [^3H]ABA.\nFor the assays of ABA binding in transgenic ABAR-RNAi and -overexpressor plants, we used more than three lines for each type of the transgenic plants and the results obtained were similar. Thus, only were the data with RNAi line 12 and overexpressor line 1 (see FIG. 5) shown in the text."}}, "note": "Where two headings read alike, the source gives them in different places.", "data": [{"smiles": "CC1=CC(=O)CC(C)(C)C1(O)/C=C/C(C)=C\\C(=O)O", "note": "(centres unmarked) [ABA, abscisic acid]", "values": [{"measurement": "Kd", "setting": "ABAR", "value": 0.036, "unit": "µM"}, {"measurement": "Kd", "setting": "[1]; across WT, RNAi and overexpressing leaf extracts, read-out: Kd", "value": "0.035 to 0.038", "unit": "µM"}, {"measurement": "Bmax", "setting": "[1]; leaf extracts of RNAi transgenic plants", "value": 25, "unit": "nmol/g"}, {"measurement": "Kd", "setting": "[1]; leaf extracts of RNAi transgenic plants, read-out: Kd", "value": 0.036, "unit": "µM"}, {"measurement": "Bmax", "setting": "[1]; leaf extracts of overexpressors of ABAR/CHLH gene (OE, line 1)", "value": 80, "unit": "nmol/g"}, {"measurement": "Kd", "setting": "[1]; leaf extracts of overexpressors of ABAR/CHLH gene (OE, line 1), read-out: Kd", "value": 0.038, "unit": "µM"}, {"measurement": "Bmax (maximum binding)", "setting": "[1]; leaf extracts of wild-type plants (WT)", "value": "60 nmol ABA g^−1 crude protein"}, {"measurement": "Kd", "setting": "[1]; leaf extracts of wild-type plants (WT), read-out: Kd (equilibrium dissociation constant)", "value": 0.035, "unit": "µM"}]}]}
